Results published in patent US20100286424A1 (priority 2007, published 2010).

Key:
[1] = tested on: mouse; conditions: in vivo, po; cited from earlier work
[2] = tested on: cell growth; format: cell-based

Compound	LD50 [1]	IC50 [2]
C[As+](C)(C)CC(=O)[O-] [AB, arsenobetaine]	10,000 mg/kg	
Arsenic acid		100 µM
Arsenious acid		10 µM
